This is an account of results in the METLIN SMRT retention time set (Domingo-Almenara et al. 2019).

The structures appear in SMILES notation.

The data set can be described thus: gradient 5% acetonitrile 3 min, to 50% in 2 min, to 85% in 15 min, held 3 min, 100 µL/min. To be noted: column: Zorbax Extend-C18 2.1 x 50 mm; eluents: water / acetonitrile, 0.1% formic acid. The gist of the method: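 Data were gathered over 3 months by HPLC coupled to a quadrupole time-of-flight mass spectrometer, operated in positive and negative ionization mode. Mixtures of ~100 pure standards ran on a Zorbax Extend-C18 column (2.1 × 50 mm, 1.8 μm) at 100 μL/min, with water and acetonitrile each containing 0.1% formic acid and dead and dwell volumes of 40 μL and 900 μL. Retention time was read from adduct peaks picked by computer and checked manually.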
In turn, `O=C(O)c1cnc(NCc2ccncc2)nc1-c1ccccc1` came in with an RP-LC retention time of 570 s.
With `CCOc1ccc(-n2nnnc2CNC(=O)CCCN2C(=O)c3ccccc3C2=O)cc1` the figure was 734 s; with `COCCCNC(=O)C1Cn2cccc2C(=O)N1CC(C)C` (centres undefined), 646 s.
In the case of `CCOCCCNC(=O)C1CCN(c2cc(Oc3ccc(CC)cc3)ncn2)CC1` it was 646 s; in that of `CCOc1ccccc1N1CCN(S(=O)(=O)c2nn(CC)cc2C(=O)NCCOC)CC1`, 910 s; in that of `O=C(NCc1cccnc1-c1ccc(F)cc1)c1ccc(F)cc1F`, 690 s.
In the case of `CC(C)n1cnc(S(=O)(=O)N2CCCC(C(=O)N3CCN(c4ccccn4)CC3)C2)c1` (centres undefined) it was 581 s; in that of `CC(C)c1nc2nccc(-c3ccc(F)cc3)n2n1`, 831 s.
Take `Cc1cc(C)cc(NC(=O)CN2C(=O)CSc3ccc(C(=O)N(C)C)cc32)c1`: the RP-LC retention time stood at 906 s.
With `COc1ccccc1/C=C/c1nc(-c2ccc3oc(C)nc3c2)no1` the figure was 1080 s.
In the case of `Cc1ccc(F)c(NS(=O)(=O)c2cc3c(s2)CCN(C(=O)C2CCC2)C3)c1` it was 891 s; in that of `COc1ccc2[nH]cc(CCNC(=O)CC3CCN(S(=O)(=O)c4ccc(Cl)s4)CC3)c2c1`, 905 s; in that of `Cc1cc(C)c(-c2csc(Nc3ccccn3)n2)cc1C`, 1030 s.
In the case of `CC(=O)N1CCc2cc(N3CC(C(=O)Nc4ccc(C)cc4Cl)CC3=O)ccc21` (centres undefined) it was 735 s.
`CCN1C(=O)c2ccccc2Oc2ccc(C(=O)NCCc3ccc(OC)c(OC)c3)cc21` registered an RP-LC retention time of 864 s.
With `Cc1ccc(S(=O)(=O)N2CCCCC2CCNC(=O)c2cccn(C)c2=O)cc1` (centres undefined) the figure was 760 s; with `CCOc1ccc(S(=O)(=O)N(CC)CC(=O)N2CCNCC2)cc1`, 623 s; with `O=S(=O)(c1cccnc1)N1CC(c2nc(-c3ccncc3)no2)C1`, 663 s.
With `CN1C(=O)c2cc(C(=O)NCc3ccccc3Cl)nn2CC1(C)C(=O)NCc1ccccc1` (centres undefined) the figure was 789 s; with `CCCN1C(=O)COc2cc(-c3noc(C(=O)NCC4CCCN4CC)n3)ccc21` (centres undefined), 645 s.
With `CC(C)NC(=O)c1ccc(OCC2CCN(C(=O)C3CCCO3)CC2)cc1` (centres undefined) the figure was 697 s.
With `COc1ccc2c3c([nH]c2c1)[C@H](CC(C)C)N1C(=O)[C@H](CCC(=O)OC(C)(C)C)NC(=O)[C@@H]1C3`, the RP-LC retention time amounted to 1100 s.
In the case of `COc1ccc(-c2ccnc3nc(-c4cccs4)nn23)c(F)c1` it was 905 s; in that of `Cc1nc(CCNS(=O)(=O)Cc2cccc(Cl)c2)no1`, 792 s.
In the case of `CCN1C(=O)c2cccnc2Sc2cc(NC(=O)c3ccn(CC)n3)ccc21` it was 738 s.
With `CCCNC(=O)N1CCCN(C2CCN(Cc3ccccc3)C2=O)CC1` (centres undefined) the figure was 535 s; with `O=C([C@@H]1C[C@H](F)CN1S(=O)(=O)Cc1ccccc1F)N1CCc2ccccc2C1`, 919 s; with `CCCCOc1ccc(C(=O)Nc2nc(-c3ccc(OC)c(C)c3)cs2)cc1`, 1240 s.
On to `Cc1ccc(C)c(NS(=O)(=O)c2ccc3c(c2)C(=O)N(C)c2ncccc2O3)c1`, for which the RP-LC retention time amounted to 970 s.
Turning to `Nc1nc(Nc2ccccc2)n[nH]1`, the RP-LC retention time worked out at 637 s.
With `CC(=O)c1ccc(N2CCN(S(=O)(=O)CCCOc3ccc(F)cc3)CC2)cc1` the figure was 753 s; with `O=C(NCCc1ccco1)C1CCN(Cc2cc3ccccc3n2Cc2ccccc2Cl)CC1`, 841 s.
With `COc1ccc(S(=O)(=O)Nc2ccc(C)n(CC(=O)O)c2=O)cc1` the figure was 678 s; with `CC(=O)Nc1ncncc1N1CCC(C(=O)NCc2cccc(C(F)(F)F)c2)CC1`, 698 s.
In the case of `CN(C)S(=O)(=O)c1ccc(-c2nnc(C(=O)NCc3ccccc3Cl)o2)cc1` it was 894 s.
The compound `Cc1ccccc1S(=O)(=O)N1[C@H]2CC[C@@H]1c1cnc(-c3ccccc3)nc1C2` registered an RP-LC retention time of 1140 s.
Take `Cc1ccc(C(=O)NCC(=O)Nc2cc(-c3nc(C)cs3)sc2C)cc1`: the RP-LC retention time was found to be 814 s.
In the case of `COC(=O)C1=CN(c2cccc(C)c2)c2cc(F)ccc2S1(=O)=O` it was 911 s; in that of `CCOCCCNC(=O)N1CCOc2ccc(CN(CC)CC)cc2C1`, 591 s; in that of `O=[N+]([O-])c1cccc(CSc2ccc3nnc(-c4cccs4)n3n2)c1`, 789 s.
In the case of `O=C(Cn1c(=O)c2cc(-c3ccco3)nn2c2ncccc21)NC1CCCCC1`, the RP-LC retention time was 793 s.
As for `CCC(=O)Nc1ccc2c(c1)Sc1ncccc1C(=O)N2CC`, the RP-LC retention time came to 655 s.
With `CC(C)CN1CCN(S(=O)(=O)c2ccc(-c3nnc(C4CC4)o3)o2)CC1` the figure was 637 s; with `CN(C)c1cc(C(=O)NC2CC2)c2cc(F)ccc2n1`, 722 s.
In the case of `COc1ccc(Nc2cc(Cl)ccc2C(=O)O)cn1` it was 978 s; in that of `COc1ccc(S(=O)(=O)N2CCC(n3cnnc3-c3ccccc3)CC2)cc1`, 783 s.
With `N#Cc1ccsc1NC(=O)CCSc1ccccc1` the figure was 879 s.
Compound `O=C(Cn1nc(N2CCOCC2)c2ccccc2c1=O)Nc1ccccc1` yielded an RP-LC retention time of 742 s.
With `CCc1ccccc1N1C(=O)CN(S(C)(=O)=O)CC1(C)C(=O)NCc1ccc(Cl)cc1` (centres undefined) the figure was 893 s; with `COc1cncc(C(=O)Nc2cc(F)ccc2Cl)c1`, 766 s.
In the case of `CCOc1ccc(NC(=O)C2CCN(S(=O)(=O)c3cc(-c4noc(C)n4)sc3C)CC2)cc1` it was 1000 s.
In the case of `O=C1C(c2cccnc2)N(c2ccc3c(c2)OCCO3)C(=O)CN1c1ccccc1` (centres undefined) it was 644 s; in that of `c1ccc(-c2nc(-c3cn(-c4ccccc4)nn3)no2)cc1`, 1020 s.
`O=C(CNC(=O)C1CCCCC1)Nc1ccc(S(=O)(=O)Nc2ccccc2Cl)cc1` gave an RP-LC retention time of 792 s.
`Cc1ccc(N2CC(c3nc(-c4ccc5c(c4)ncn5CCC(=O)N4CCCC4)no3)CC2=O)cc1` (centres undefined): the RP-LC retention time came out at 676 s.
With `COc1ccc(OC)c(CNC(=O)Cc2nnc(-c3cnccn3)o2)c1` the figure was 616 s; with `Cc1nnc(CNC(=O)Cc2csc(Nc3ncccn3)n2)o1`, 560 s; with `CC(=O)N(Cc1nn(C)c2c1CN(S(=O)(=O)c1ccc3c(c1)CCC3)CC2)c1ccccc1`, 868 s.
With `Cc1cccc(S(=O)(=O)NC2CCN(c3ccc(F)cc3)C2=O)c1` (centres undefined) the figure was 928 s.
